Source: ChEMBL document CHEMBL3351449, “Inhibition of FAAH, TRPV1, and COX2 by NSAID-serotonin conjugates” (Bioorg Med Chem Lett, 2014)
Activity calls are given as the source filed them. No cut-off for these calls is given here.

Key:
[1] = target: T1, Transient receptor potential cation channel subfamily V member 1 (Homo sapiens, UniProt Q8NER1); assay: Inhibition of human TRPV1 overexpressed in BEAS-2B cells assessed as residual activity at 250 uM after 30 mins by Fluo-4 AM fluorescence assay; assay type: cell-based
T1 sequence (Q8NER1 whole entry): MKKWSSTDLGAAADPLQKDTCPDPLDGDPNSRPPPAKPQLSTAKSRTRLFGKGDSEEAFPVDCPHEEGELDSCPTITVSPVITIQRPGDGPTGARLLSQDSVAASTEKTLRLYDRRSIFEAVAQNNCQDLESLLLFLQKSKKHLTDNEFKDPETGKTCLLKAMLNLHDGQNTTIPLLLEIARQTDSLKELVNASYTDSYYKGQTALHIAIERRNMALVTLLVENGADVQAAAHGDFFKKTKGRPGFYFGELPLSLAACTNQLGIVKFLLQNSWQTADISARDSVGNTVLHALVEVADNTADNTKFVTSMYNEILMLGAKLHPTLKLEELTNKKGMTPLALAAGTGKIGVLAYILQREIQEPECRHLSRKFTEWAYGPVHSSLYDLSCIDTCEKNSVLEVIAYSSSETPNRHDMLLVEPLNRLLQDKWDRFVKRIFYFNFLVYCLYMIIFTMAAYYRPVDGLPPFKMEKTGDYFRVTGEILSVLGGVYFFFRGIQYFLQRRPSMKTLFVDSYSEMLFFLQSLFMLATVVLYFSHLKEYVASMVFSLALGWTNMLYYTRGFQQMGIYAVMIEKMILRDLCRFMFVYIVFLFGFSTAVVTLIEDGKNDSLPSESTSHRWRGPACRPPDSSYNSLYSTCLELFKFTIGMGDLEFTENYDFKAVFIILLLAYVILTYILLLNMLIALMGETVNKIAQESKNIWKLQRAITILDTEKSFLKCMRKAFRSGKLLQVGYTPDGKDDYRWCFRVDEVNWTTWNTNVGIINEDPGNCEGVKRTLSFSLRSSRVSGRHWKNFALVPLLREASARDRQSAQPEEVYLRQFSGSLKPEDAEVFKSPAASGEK

[2] = target: T1, Transient receptor potential cation channel subfamily V member 1; assay: Inhibition of human TRPV1 overexpressed in BEAS-2B cells assessed as residual activity at 50 uM after 30 mins by Fluo-4 AM fluorescence assay; assay type: cell-based
[3] = target: T1, Transient receptor potential cation channel subfamily V member 1; assay: Inhibition of human TRPV1 overexpressed in BEAS-2B cells assessed as calcium flux after 30 mins by Fluo-4 AM fluorescence assay; assay type: cell-based
[4] = target: T2, Prostaglandin G/H synthase 2 (Homo sapiens) (UniProt P35354); assay: Inhibition of human recombinant COX2 assessed as inhibition of ADHP to fluorescent resorufin conversion measured as residual activity at 10 uM by fluorescence assay
T2 sequence (whole entry): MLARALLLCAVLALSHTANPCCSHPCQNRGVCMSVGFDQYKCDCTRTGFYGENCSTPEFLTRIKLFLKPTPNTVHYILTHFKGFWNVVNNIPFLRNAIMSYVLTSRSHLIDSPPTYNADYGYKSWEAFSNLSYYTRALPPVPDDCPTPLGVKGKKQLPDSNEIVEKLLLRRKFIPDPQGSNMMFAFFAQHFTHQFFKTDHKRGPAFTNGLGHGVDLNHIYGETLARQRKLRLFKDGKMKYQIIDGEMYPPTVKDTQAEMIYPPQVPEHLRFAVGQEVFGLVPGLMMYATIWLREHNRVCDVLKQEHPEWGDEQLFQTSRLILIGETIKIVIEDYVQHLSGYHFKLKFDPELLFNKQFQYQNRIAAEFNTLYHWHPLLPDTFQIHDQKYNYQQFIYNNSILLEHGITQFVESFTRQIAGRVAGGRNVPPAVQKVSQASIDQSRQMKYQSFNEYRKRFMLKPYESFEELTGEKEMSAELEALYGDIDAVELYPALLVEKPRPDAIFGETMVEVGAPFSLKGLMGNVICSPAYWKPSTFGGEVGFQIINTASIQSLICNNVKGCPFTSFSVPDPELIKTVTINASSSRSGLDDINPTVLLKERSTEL

[5] = target: T3, Fatty-acid amide hydrolase 1 (Homo sapiens) (UniProt O00519); assay: Inhibition of human recombinant FAAH using AMC arachidonoyl amide as substrate assessed as residual activity at 10 uM by fluorescence assay
T3 sequence (whole entry): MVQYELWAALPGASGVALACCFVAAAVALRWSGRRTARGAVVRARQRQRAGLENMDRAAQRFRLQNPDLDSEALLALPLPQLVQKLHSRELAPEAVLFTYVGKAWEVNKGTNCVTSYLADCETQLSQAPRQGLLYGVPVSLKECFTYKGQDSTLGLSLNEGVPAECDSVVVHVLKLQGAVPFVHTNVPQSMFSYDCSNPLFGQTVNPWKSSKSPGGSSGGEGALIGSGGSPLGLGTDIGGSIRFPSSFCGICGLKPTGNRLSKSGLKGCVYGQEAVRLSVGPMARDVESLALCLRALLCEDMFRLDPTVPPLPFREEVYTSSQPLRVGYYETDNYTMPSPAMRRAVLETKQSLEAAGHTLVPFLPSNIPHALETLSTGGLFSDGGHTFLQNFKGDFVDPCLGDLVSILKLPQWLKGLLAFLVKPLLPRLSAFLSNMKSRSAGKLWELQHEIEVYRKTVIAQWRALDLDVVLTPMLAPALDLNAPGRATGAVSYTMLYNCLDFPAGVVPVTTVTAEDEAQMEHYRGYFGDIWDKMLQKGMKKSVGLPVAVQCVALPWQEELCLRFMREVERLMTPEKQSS

[6] = target: T3, Fatty-acid amide hydrolase 1 (Homo sapiens); assay: Inhibition of human recombinant FAAH using AMC arachidonoyl amide as substrate assessed as residual activity at 50 uM by fluorescence assay
[7] = target: T4, Prostaglandin G/H synthase 2 (Homo sapiens, UniProt P35354); assay: Inhibition of human recombinant COX2 assessed as inhibition of ADHP to fluorescent resorufin conversion by fluorescence assay
T4 sequence (P35354 whole entry): T2 sequence (whole entry)

[8] = target: T5, Fatty-acid amide hydrolase 1 (Homo sapiens, UniProt O00519); assay: Inhibition of human recombinant FAAH using AMC arachidonoyl amide as substrate by fluorescence assay
T5 sequence (O00519 whole entry): T3 sequence (whole entry)

[9] = target: T1, Transient receptor potential cation channel subfamily V member 1; assay: Inhibition of human TRPV1 overexpressed in BEAS-2B cells at 10 uM after 30 mins by Fluo-4 AM fluorescence assay; assay type: cell-based
[10] = target: T1, Transient receptor potential cation channel subfamily V member 1; assay: Stimulation of human TRPV1 overexpressed in BEAS-2B cells at >10 uM after 30 mins by Fluo-4 AM fluorescence assay; assay type: cell-based

SMILES	Activity [1]	Activity [2]	IC50 [3]	Activity [4]	Activity [5]	further results
O=C(c1ccccc1)c1ccc2n1CCC2C(=O)O (stereo unspecified)	110%	96%				
CC(C(=O)O)c1cccc(Oc2ccccc2)c1 (stereo unspecified)	121%	104%				
O=C(NCCc1c[nH]c2ccc(O)cc12)c1ccccc1O			70 µM	51%	101%	
CC(C(=O)NCCc1c[nH]c2ccc(O)cc12)c1cccc(C(=O)c2ccccc2)c1 (stereo unspecified)			45 µM	51%	88%	
CC(=O)Oc1ccccc1C(=O)NCCc1c[nH]c2ccc(O)cc12			203 µM	60%	99%	
CC(C(=O)NCCc1c[nH]c2ccc(O)cc12)c1cccc(Oc2ccccc2)c1 (stereo unspecified)			8 µM	49%		Activity [6]: 105%; IC50 [7]: 7 µM
COc1ccc2cc([C@H](C)C(=O)NCCc3c[nH]c4ccc(O)cc34)ccc2c1			13 µM	48%		Activity [6]: 73%; IC50 [7]: 18 µM
CC(C(=O)NCCc1c[nH]c2ccc(O)cc12)c1ccc(-c2ccccc2)c(F)c1 (stereo unspecified)			9 µM	38%	85%	IC50 [8]: 15 µM; IC50 [7]: 8 µM
COc1ccc2c(c1)c(CC(=O)NCCc1c[nH]c3ccc(O)cc13)c(C)n2C(=O)c1ccc(Cl)cc1			48 µM	7%	94%	
O=C(NCCc1c[nH]c2ccc(O)cc12)c1ccccc1Nc1cccc(C(F)(F)F)c1			10 µM	38%	107%	inhibition [9]: 40%; Activity [10]: Active
CC(=O)Oc1ccccc1C(=O)O	91%	84%				
CC(C)Cc1ccc(C(C)C(=O)NCCc2c[nH]c3ccc(O)cc23)cc1 (stereo unspecified)			6 µM	42%	75%	IC50 [8]: 5 µM; IC50 [7]: 10 µM
CC(C(=O)O)c1ccc(-c2ccccc2)c(F)c1 (stereo unspecified)	108%	103%				
CCCCC/C=C\C/C=C\C/C=C\C/C=C\CCCC(=O)NCCc1c[nH]c2ccc(O)cc12			10 µM	66%	78%	IC50 [8]: 16 µM; IC50 [7]: 5 µM
COc1ccc2c(c1)c(CC(=O)O)c(C)n2C(=O)c1ccc(Cl)cc1	82%	98%				
O=C(O)c1ccccc1Nc1cccc(C(F)(F)F)c1	36%	66%				
COc1ccc2cc([C@H](C)C(=O)O)ccc2c1	109%	107%				
O=C(O)Cc1ccccc1Nc1c(Cl)cccc1Cl	49%	61%				
CC(C(=O)O)c1cccc(C(=O)c2ccccc2)c1 (stereo unspecified)	108%	103%				
CC(C)Cc1ccc(C(C)C(=O)O)cc1 (stereo unspecified)	112%	103%				
O=C(Cc1ccccc1Nc1c(Cl)cccc1Cl)NCCc1c[nH]c2ccc(O)cc12			19 µM	43%	98%	
O=C(c1ccccc1)c1ccc2n1CCC2C(=O)NCCc1c[nH]c2ccc(O)cc12 (stereo unspecified)			70 µM	43%	98%	
